Experiment [1] in a line: Binding affinity against human Elastase for more active diasteriomer.
In experiment [2] the target is Neutrophil elastase (Homo sapiens) (UniProt P08246). The experiment is described as follows: Binding affinity against human Elastase.
The target in experiment [3] is Cathepsin G (Rattus norvegicus). As to the kind of experiment: Binding affinity against rat Cathepsin G.

In BindingDB's records for doi:10.1021/jm00163a063 (Merrell Dow Research Institute, 1990) one finds Ki data, which are given here for seven compounds.

Broadly, the pKi is the negative decadic logarithm of the Ki, by convention in mol/L.

pKi: −log10 of the molar value. Peptide text beside a SMILES is read from it. * marks the point of attachment. MeOSuc = COC(=O)CCC(=O)*; Cbz = O=C(OCc1ccccc1)*; Boc = CC(C)(C)OC(=O)*; CF3 = FC(F)(F)*

Neutrophil elastase (Homo sapiens), sequence (P08246 whole entry, looked up): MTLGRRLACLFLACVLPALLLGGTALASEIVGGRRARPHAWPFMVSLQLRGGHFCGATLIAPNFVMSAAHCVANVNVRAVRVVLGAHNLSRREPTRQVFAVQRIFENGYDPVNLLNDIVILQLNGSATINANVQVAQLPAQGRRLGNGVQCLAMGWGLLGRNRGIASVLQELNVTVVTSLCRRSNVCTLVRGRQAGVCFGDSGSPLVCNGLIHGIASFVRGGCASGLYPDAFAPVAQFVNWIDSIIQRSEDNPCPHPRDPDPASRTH

Turning to `CCOC(=O)C(F)(F)C(=O)[C@@H](NC(=O)[C@@H]1CCCN1C(=O)[C@H](C)NC(=O)[C@H](C)NC(=O)CCC(=O)OC)C(C)C`, in experiment [1], the pKi is 5.37.
Still for that read-out and setting: in the case of `COC(=O)CCC(=O)NCCCC[C@H](NS(=O)(=O)C12CC3CC(CC(C3)C1)C2)C(=O)N1CCC[C@H]1C(=O)N[C@H](C(=O)C(F)(F)F)C(C)C` it was 9.24; in that of `COC(=O)C(=O)[C@H](C)NC(=O)[C@@H]1CCCN1C(=O)[C@H](C)NC(=O)[C@@H]1CCCN1C(C)=O`, 6.07.
Take `CC(=O)N[C@@H](C)C(=O)N[C@@H](C)C(=O)N1CCC[C@H]1C(=O)N[C@@H](C)C(=O)C(F)(F)F` (Ac-AAPA-CF3): the pKi in experiment [2] is 4.62.
The compound `CC(C)[C@H](NC(=O)[C@@H]1CCCN1C(=O)[C@H](C)NC(=O)[C@H](C)NC(=O)OC(C)(C)C)C(=O)C(F)(F)F` (Boc-AAPV-CF3) had a pKi in experiment [1] of 7.36.
Still for that read-out and setting: to `CC(C)[C@H](NC(=O)[C@@H]1CCCN1C(=O)[C@H](C)NC(=O)[C@H](C)NC(=O)OCc1ccccc1)C(=O)C(F)(F)F` (Cbz-AAPV-CF3) belongs 9.00.
Regarding `COC(=O)CCC(=O)N[C@H](C(=O)N1CCC[C@H]1C(=O)N[C@@H](Cc1ccccc1)C(=O)C(F)(F)F)C(C)C` (MeOSuc-Val-Pro-Phe-CF3), in experiment [3], the pKi is 6.70.
